Legend:
Assay in all cases: relative viability (nuclei count vs DMSO), 5 days (fraction); higher = more cells survive
Elesclomol = compound: CN(NC(=O)CC(=O)NN(C)C(=S)c1ccccc1)C(=S)c1ccccc1 [Elesclomol]
How it was run: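 For viability, nuclei in each treated well were divided by nuclei in vehicle wells and the median across plates was taken. Lung cancer cell lines in 1536-well plates were pinned with five library-drug doses (not always all listed) spaced by √10, cultured 5 days without medium change, and imaged at 4× after Hoechst staining, with plates passing only at control CV below 25% and at least one doubling.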

Elesclomol + Decitabine = compound: CN(NC(=O)CC(=O)NN(C)C(=S)c1ccccc1)C(=S)c1ccccc1 [Elesclomol] + Nc1ncn([C@H]2C[C@H](O)[C@@H](CO)O2)c(=O)n1 [Decitabine] (partner 2 µM)
How it was run: (§1)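 Values are medians from duplicate plates. Each reflects relative viability, defined as the nuclei count of treated wells over that of vehicle wells. Lung cancer cell lines in 1536-well plates were pin-tool dosed one day after seeding with one drug alone or with a fixed anchor-drug dose plus five library-drug doses (not always all listed) in √10 steps, then fixed, stained and imaged at 4× after 5 days.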

Elesclomol + Pemetrexed = compound: CN(NC(=O)CC(=O)NN(C)C(=S)c1ccccc1)C(=S)c1ccccc1 [Elesclomol] + Nc1nc2[nH]cc(CCc3ccc(C(=O)N[C@@H](CCC(=O)O)C(=O)O)cc3)c2c(=O)[nH]1 [Pemetrexed] (partner 0.2 µM)
How it was run: as §1

Elesclomol + Trametinib = compound: CN(NC(=O)CC(=O)NN(C)C(=S)c1ccccc1)C(=S)c1ccccc1 [Elesclomol] + CC(=O)Nc1cccc(-n2c(=O)n(C3CC3)c(=O)c3c(Nc4ccc(I)cc4F)n(C)c(=O)c(C)c32)c1 [Trametinib] (partner 0.02 µM)
How it was run: as §1

Elesclomol + Tozasertib = compound: CN(NC(=O)CC(=O)NN(C)C(=S)c1ccccc1)C(=S)c1ccccc1 [Elesclomol] + Cc1cc(Nc2cc(N3CCN(C)CC3)nc(Sc3ccc(NC(=O)C4CC4)cc3)n2)n[nH]1 [Tozasertib] (partner 0.1 µM)
How it was run: as §1

Elesclomol + Vorinostat = compound: CN(NC(=O)CC(=O)NN(C)C(=S)c1ccccc1)C(=S)c1ccccc1 [Elesclomol] + O=C(CCCCCCC(=O)Nc1ccccc1)NO [Vorinostat] (partner 1 µM)
How it was run: as §1

Elesclomol + AZD7762 = compound: CN(NC(=O)CC(=O)NN(C)C(=S)c1ccccc1)C(=S)c1ccccc1 [Elesclomol] + NC(=O)Nc1cc(-c2cccc(F)c2)sc1C(=O)N[C@H]1CCCNC1 [AZD7762] (partner 0.2 µM)
How it was run: as §1

Elesclomol + Palbociclib = compound: CN(NC(=O)CC(=O)NN(C)C(=S)c1ccccc1)C(=S)c1ccccc1 [Elesclomol] + CC(=O)c1c(C)c2cnc(Nc3ccc(N4CCNCC4)cn3)nc2n(C2CCCC2)c1=O [Palbociclib] (partner 0.5 µM)
How it was run: as §1

Elesclomol + OSI-027 = compound: CN(NC(=O)CC(=O)NN(C)C(=S)c1ccccc1)C(=S)c1ccccc1 [Elesclomol] + COc1cccc2cc(-c3nc([C@H]4CC[C@H](C(=O)O)CC4)n4ncnc(N)c34)[nH]c12 [OSI-027] (partner 0.5 µM)
How it was run: as §1

Elesclomol + Olaparib = compound: CN(NC(=O)CC(=O)NN(C)C(=S)c1ccccc1)C(=S)c1ccccc1 [Elesclomol] + O=C(c1cc(Cc2n[nH]c(=O)c3ccccc23)ccc1F)N1CCN(C(=O)C2CC2)CC1 [Olaparib] (partner 8 µM)
How it was run: as §1

Elesclomol + Dasatinib = compound: CN(NC(=O)CC(=O)NN(C)C(=S)c1ccccc1)C(=S)c1ccccc1 [Elesclomol] + Cc1nc(Nc2ncc(C(=O)Nc3c(C)cccc3Cl)s2)cc(N2CCN(CCO)CC2)n1 [Dasatinib] (partner 0.075 µM)
How it was run: as §1

Elesclomol + Foretinib = compound: CN(NC(=O)CC(=O)NN(C)C(=S)c1ccccc1)C(=S)c1ccccc1 [Elesclomol] + COc1cc2c(Oc3ccc(NC(=O)C4(C(=O)Nc5ccc(F)cc5)CC4)cc3F)ccnc2cc1OCCCN1CCOCC1 [Foretinib] (partner 0.25 µM)
How it was run: as §1

Elesclomol + Phenformin = compound: CN(NC(=O)CC(=O)NN(C)C(=S)c1ccccc1)C(=S)c1ccccc1 [Elesclomol] + N=C(N)NC(=N)NCCc1ccccc1 [Phenformin] (partner 250 µM)
How it was run: as §1

Elesclomol + Luminespib = compound: CN(NC(=O)CC(=O)NN(C)C(=S)c1ccccc1)C(=S)c1ccccc1 [Elesclomol] + CCNC(=O)c1noc(-c2cc(C(C)C)c(O)cc2O)c1-c1ccc(CN2CCOCC2)cc1 [Luminespib] (partner 0.01 µM)
How it was run: as §1

NCI-H1648
relative viability (Elesclomol; 0.003162 µM): 0.606
relative viability (Elesclomol; 0.01 µM): 0.725
relative viability (Elesclomol; 0.03162 µM): 0.827
relative viability (Elesclomol; 0.1 µM): 0.76
relative viability (Elesclomol + Decitabine; first compound 0.003162 µM): 0.551
relative viability (Elesclomol + Decitabine; first compound 0.01 µM): 0.469
relative viability (Elesclomol + Decitabine; first compound 0.03162 µM): 0.509
relative viability (Elesclomol + Decitabine; first compound 0.1 µM): 0.453
relative viability (Elesclomol + Pemetrexed; first compound 0.003162 µM): 0.7
relative viability (Elesclomol + Pemetrexed; first compound 0.01 µM): 0.599
relative viability (Elesclomol + Pemetrexed; first compound 0.03162 µM): 0.752
relative viability (Elesclomol + Pemetrexed; first compound 0.1 µM): 0.673
relative viability (Elesclomol + Trametinib; first compound 0.003162 µM): 0.555
relative viability (Elesclomol + Trametinib; first compound 0.01 µM): 0.415
relative viability (Elesclomol + Trametinib; first compound 0.03162 µM): 0.46
relative viability (Elesclomol + Trametinib; first compound 0.1 µM): 0.39
relative viability (Elesclomol + Tozasertib; first compound 0.003162 µM): 0.379
relative viability (Elesclomol + Tozasertib; first compound 0.01 µM): 0.409
relative viability (Elesclomol + Tozasertib; first compound 0.03162 µM): 0.506
relative viability (Elesclomol + Tozasertib; first compound 0.1 µM): 0.54
relative viability (Elesclomol + Vorinostat; first compound 0.003162 µM): 0.338
relative viability (Elesclomol + Vorinostat; first compound 0.01 µM): 0.416
relative viability (Elesclomol + Vorinostat; first compound 0.03162 µM): 0.385
relative viability (Elesclomol + Vorinostat; first compound 0.1 µM): 0.313
relative viability (Elesclomol + AZD7762; first compound 0.003162 µM): 0.581
relative viability (Elesclomol + AZD7762; first compound 0.01 µM): 0.686
relative viability (Elesclomol + AZD7762; first compound 0.03162 µM): 0.61
relative viability (Elesclomol + AZD7762; first compound 0.1 µM): 0.622
relative viability (Elesclomol + Palbociclib; first compound 0.003162 µM): 0.301
relative viability (Elesclomol + Palbociclib; first compound 0.01 µM): 0.285
relative viability (Elesclomol + Palbociclib; first compound 0.03162 µM): 0.266
relative viability (Elesclomol + Palbociclib; first compound 0.1 µM): 0.253
relative viability (Elesclomol + OSI-027; first compound 0.003162 µM): 0.263
relative viability (Elesclomol + OSI-027; first compound 0.01 µM): 0.276
relative viability (Elesclomol + OSI-027; first compound 0.03162 µM): 0.224
relative viability (Elesclomol + OSI-027; first compound 0.1 µM): 0.295
relative viability (Elesclomol + Olaparib; first compound 0.003162 µM): 0.675
relative viability (Elesclomol + Olaparib; first compound 0.01 µM): 0.753
relative viability (Elesclomol + Olaparib; first compound 0.03162 µM): 0.835
relative viability (Elesclomol + Olaparib; first compound 0.1 µM): 0.796

SW 900
relative viability (Elesclomol; 0.003162 µM): 0.871
relative viability (Elesclomol; 0.01 µM): 0.701
relative viability (Elesclomol; 0.03162 µM): 0.251
relative viability (Elesclomol; 0.1 µM): 0.0829
relative viability (Elesclomol + Decitabine; first compound 0.003162 µM): 0.404
relative viability (Elesclomol + Decitabine; first compound 0.01 µM): 0.358
relative viability (Elesclomol + Decitabine; first compound 0.03162 µM): 0.204
relative viability (Elesclomol + Decitabine; first compound 0.1 µM): 0.13
relative viability (Elesclomol + Pemetrexed; first compound 0.003162 µM): 0.495
relative viability (Elesclomol + Pemetrexed; first compound 0.01 µM): 0.453
relative viability (Elesclomol + Pemetrexed; first compound 0.03162 µM): 0.289
relative viability (Elesclomol + Pemetrexed; first compound 0.1 µM): 0.0977
relative viability (Elesclomol + Trametinib; first compound 0.003162 µM): 0.902
relative viability (Elesclomol + Trametinib; first compound 0.01 µM): 0.399
relative viability (Elesclomol + Trametinib; first compound 0.03162 µM): 0.197
relative viability (Elesclomol + Trametinib; first compound 0.1 µM): 0.14
relative viability (Elesclomol + Dasatinib; first compound 0.003162 µM): 0.626
relative viability (Elesclomol + Dasatinib; first compound 0.01 µM): 0.41
relative viability (Elesclomol + Dasatinib; first compound 0.03162 µM): 0.144
relative viability (Elesclomol + Dasatinib; first compound 0.1 µM): 0.196
relative viability (Elesclomol + Tozasertib; first compound 0.003162 µM): 0.534
relative viability (Elesclomol + Tozasertib; first compound 0.01 µM): 0.3
relative viability (Elesclomol + Tozasertib; first compound 0.03162 µM): 0.121
relative viability (Elesclomol + Tozasertib; first compound 0.1 µM): 0.146
relative viability (Elesclomol + Vorinostat; first compound 0.003162 µM): 0.522
relative viability (Elesclomol + Vorinostat; first compound 0.01 µM): 0.345
relative viability (Elesclomol + Vorinostat; first compound 0.03162 µM): 0.234
relative viability (Elesclomol + Vorinostat; first compound 0.1 µM): 0.111
relative viability (Elesclomol + Foretinib; first compound 0.003162 µM): 0.87
relative viability (Elesclomol + Foretinib; first compound 0.01 µM): 0.91
relative viability (Elesclomol + Foretinib; first compound 0.03162 µM): 0.127
relative viability (Elesclomol + Foretinib; first compound 0.1 µM): 0.0681
relative viability (Elesclomol + AZD7762; first compound 0.003162 µM): 0.709
relative viability (Elesclomol + AZD7762; first compound 0.01 µM): 0.54
relative viability (Elesclomol + AZD7762; first compound 0.03162 µM): 0.272
relative viability (Elesclomol + AZD7762; first compound 0.1 µM): 0.103
relative viability (Elesclomol + Palbociclib; first compound 0.003162 µM): 0.531
relative viability (Elesclomol + Palbociclib; first compound 0.01 µM): 0.453
relative viability (Elesclomol + Palbociclib; first compound 0.03162 µM): 0.168
relative viability (Elesclomol + Palbociclib; first compound 0.1 µM): 0.0979
relative viability (Elesclomol + OSI-027; first compound 0.003162 µM): 0.615
relative viability (Elesclomol + OSI-027; first compound 0.01 µM): 0.287
relative viability (Elesclomol + OSI-027; first compound 0.03162 µM): 0.121
relative viability (Elesclomol + OSI-027; first compound 0.1 µM): 0.0545
relative viability (Elesclomol + Phenformin; first compound 0.003162 µM): 0.521
relative viability (Elesclomol + Phenformin; first compound 0.01 µM): 0.337
relative viability (Elesclomol + Phenformin; first compound 0.03162 µM): 0.178
relative viability (Elesclomol + Phenformin; first compound 0.1 µM): 0.0792
relative viability (Elesclomol + Olaparib; first compound 0.003162 µM): 0.774
relative viability (Elesclomol + Olaparib; first compound 0.01 µM): 0.596
relative viability (Elesclomol + Olaparib; first compound 0.03162 µM): 0.264
relative viability (Elesclomol + Olaparib; first compound 0.1 µM): 0.0917
relative viability (Elesclomol + Luminespib; first compound 0.003162 µM): 0.173
relative viability (Elesclomol + Luminespib; first compound 0.01 µM): 0.132
relative viability (Elesclomol + Luminespib; first compound 0.03162 µM): 0.17
relative viability (Elesclomol + Luminespib; first compound 0.1 µM): 0.139

Reference: the supplement of paper PMC10307832
